A word on the IC50: it is the midpoint of a concentration-inhibition curve.

The values that follow come from ChEMBL document CHEMBL3621149, “Cytotoxic labdane-type diterpenes from Hedychium longipetalum inhibiting production of nitric oxide” (Bioorg Med Chem Lett, 2015).

Converted amounts (≈) assume the structure as drawn. Peptide text beside a SMILES is read from it. * marks the point of attachment. Cbz = O=C(OCc1ccccc1)*

Type in all cases: functional, cell-based
One assay relates to RAW264.7. Kind of assay: Inhibition of LPS and IFN-gamma-stimulated nitric oxide production in mouse RAW264.7 cells after 18 hrs by Griess method. The settings on record: RAW264.7, 18 h.
A further assay deals with HeLa. In words: Cytotoxicity against human HeLa cells after 48 hrs by SRB assay.
Assay [1] is described as follows: Cytotoxicity against human SGC7901 cells after 48 hrs by SRB assay. The settings on record: SGC-7901, 48 h. On the technique in general: Sulforhodamine B stains cellular protein and so reports cell mass.

As to `CC1(C)CCC[C@]2(C)[C@@H]3C(=CC(=O)[C@@H]12)CO[C@H]3C(=O)c1ccoc1`, the half-maximal inhibitory concentration (IC50) is 7.5 µg/mL (≈ 22.8 µM) with RAW264.7, above 25 µg/mL in the assay with HeLa and above 25 µg/mL in assay [1].
As to `C=C1[C@@H](O)[C@@H](O)[C@H]2C(C)(C)CCC[C@]2(C)[C@H]1/C=C/C1=CCOC1=O`, the IC50 with RAW264.7 was 5.58 µg/mL (≈ 16.8 µM); in the assay on HeLa, above 25 µg/mL; in assay [1], above 25 µg/mL.
With `C=C1C[C@@H](O)[C@H]2C(C)(C)CCC[C@]2(C)[C@H]1C/C=C1/CC(OC)OC1=O` (stereo partly specified), the IC50 turned out to be 6.1 µg/mL (≈ 17.5 µM) in the assay with RAW264.7, 11.3 µg/mL (≈ 32.5 µM) in the assay on HeLa and 8.74 µg/mL (≈ 25.1 µM) in assay [1].
For `C=C1[C@@H](O)C[C@H]2C(C)(C)CCC[C@]2(C)[C@H]1/C=C/C1=CCOC1=O` the same measures were 6.52 µg/mL (≈ 20.6 µM), 14.8 µg/mL (≈ 46.9 µM) and 14.5 µg/mL (≈ 45.9 µM).
On the same counts, the results for `C=C1[C@@H](O)C[C@H]2C(C)(C)CCC[C@]2(C)[C@H]1/C=C/C1=CC(=O)OC1O` (stereo partly specified) [HEDYFORRESTIN C] are 2.77 µg/mL (≈ 8.33 µM), 9.21 µg/mL (≈ 27.7 µM) and 7.29 µg/mL (≈ 21.9 µM).
`CC(C)C[C@@H](C=O)NC(=O)[C@H](CC(C)C)NC(=O)[C@H](CC(C)C)NC(=O)OCc1ccccc1` [MG-132] (Cbz-Leu-Leu-Leu-aldehyde) gave an IC50 in the assay with RAW264.7 of 0.08 µg/mL (≈ 0.168 µM).
With `CC(=O)O[C@H]1C(=O)[C@@]2(C)[C@H]([C@H](OC(=O)c3ccccc3)[C@]3(O)C[C@H](OC(=O)[C@H](O)[C@@H](NC(=O)c4ccccc4)c4ccccc4)C(C)=C1C3(C)C)[C@]1(OC(C)=O)CO[C@@H]1C[C@@H]2O` [PACLITAXEL], the concentration for half-maximal inhibition (IC50) with HeLa is 0.1 µg/mL (≈ 0.117 µM); in assay [1], 0.2 µg/mL (≈ 0.234 µM).
As to `C=C1C[C@@H](O)[C@H]2C(C)(C)CCC[C@]2(C)[C@H]1/C=C/c1ccoc1` [YUNNACORONARIN A], the IC50 came to 0.56 µg/mL (≈ 1.86 µM) in the assay on RAW264.7, 6.58 µg/mL (≈ 21.9 µM) with HeLa and 6.21 µg/mL (≈ 20.7 µM) in assay [1].
